These results are taken from ChEMBL document CHEMBL1148868, “Isoform selective inhibition of STAT1 or STAT3 homo-dimerization via peptidomimetic probes: structural recognition of STAT SH2 domains” (Bioorg Med Chem Lett, 2007).

Assay [1] concerns the target T1, Signal transducer and activator of transcription 1-alpha/beta (Homo sapiens, UniProt P42224).
T1 sequence (P42224 whole entry): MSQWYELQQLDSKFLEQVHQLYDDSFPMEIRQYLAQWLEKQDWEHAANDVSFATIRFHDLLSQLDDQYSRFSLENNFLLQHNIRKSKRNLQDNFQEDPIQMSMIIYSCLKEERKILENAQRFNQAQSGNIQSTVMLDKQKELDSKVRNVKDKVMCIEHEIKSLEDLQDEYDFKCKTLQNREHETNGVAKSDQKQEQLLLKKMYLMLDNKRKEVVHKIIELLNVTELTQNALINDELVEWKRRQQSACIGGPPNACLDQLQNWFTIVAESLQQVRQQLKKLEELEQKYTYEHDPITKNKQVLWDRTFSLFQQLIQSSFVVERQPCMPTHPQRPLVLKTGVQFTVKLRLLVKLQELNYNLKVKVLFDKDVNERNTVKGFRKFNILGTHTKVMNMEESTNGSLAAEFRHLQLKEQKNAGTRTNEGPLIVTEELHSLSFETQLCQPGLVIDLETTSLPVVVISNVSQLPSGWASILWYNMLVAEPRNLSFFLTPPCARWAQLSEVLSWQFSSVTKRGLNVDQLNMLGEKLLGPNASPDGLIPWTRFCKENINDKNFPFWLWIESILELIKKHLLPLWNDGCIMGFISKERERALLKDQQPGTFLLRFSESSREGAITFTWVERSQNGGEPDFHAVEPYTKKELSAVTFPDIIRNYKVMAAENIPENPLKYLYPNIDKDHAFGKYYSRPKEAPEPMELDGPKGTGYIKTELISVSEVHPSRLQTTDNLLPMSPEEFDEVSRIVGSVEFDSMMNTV
In words: (§1) Inhibition of STAT1 dimer DNA binding activity after 30 mins. Type of assay: functional.

Assay [2] concerns the target Signal transducer and activator of transcription 3 (Homo sapiens, UniProt P40763). Description: Inhibition of STAT3 dimer DNA binding activity after 30 mins.
Assay [3] concerns the target T2, Signal transducer and activator of transcription 1-alpha/beta (Homo sapiens) (UniProt P42224).
T2 sequence (whole entry): T1 sequence (P42224 whole entry)
The description is as §1. Type of assay: functional.

By pIC50 is commonly meant the IC50 on a negative log10 scale, so that one unit is a factor of ten. High values mean a low IC50, low ones a high IC50.

pIC50: −log10 of the molar value. Active and inactive are the calls of the source. The calls are words filed in the database; no cut-off is given here.

Chain of Signal transducer and activator of transcription 3 (P40763 whole entry): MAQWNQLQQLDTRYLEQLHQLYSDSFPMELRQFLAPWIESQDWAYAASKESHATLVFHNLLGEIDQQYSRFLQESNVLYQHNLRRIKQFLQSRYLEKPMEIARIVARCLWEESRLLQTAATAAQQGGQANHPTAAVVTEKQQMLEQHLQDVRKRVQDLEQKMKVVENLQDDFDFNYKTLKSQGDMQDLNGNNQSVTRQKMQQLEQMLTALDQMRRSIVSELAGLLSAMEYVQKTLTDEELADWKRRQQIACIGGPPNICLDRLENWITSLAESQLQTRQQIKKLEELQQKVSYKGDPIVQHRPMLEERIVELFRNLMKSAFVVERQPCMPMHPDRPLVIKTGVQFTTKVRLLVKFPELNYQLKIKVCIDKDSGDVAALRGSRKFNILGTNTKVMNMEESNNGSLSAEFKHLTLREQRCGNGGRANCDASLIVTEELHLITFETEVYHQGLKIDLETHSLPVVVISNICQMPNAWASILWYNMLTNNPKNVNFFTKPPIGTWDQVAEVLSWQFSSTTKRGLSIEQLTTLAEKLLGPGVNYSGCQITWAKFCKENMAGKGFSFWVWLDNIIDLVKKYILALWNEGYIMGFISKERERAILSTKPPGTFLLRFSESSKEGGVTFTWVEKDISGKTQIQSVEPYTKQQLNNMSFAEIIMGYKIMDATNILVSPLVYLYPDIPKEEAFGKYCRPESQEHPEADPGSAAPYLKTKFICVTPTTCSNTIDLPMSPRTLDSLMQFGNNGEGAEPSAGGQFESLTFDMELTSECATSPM

With `COc1cccc(NC(=O)[C@H](CC(C)C)NC(=O)[C@H](Cc2ccc(OP(=O)(O)O)cc2)NC(=O)c2ccc(C#N)cc2)c1`, the results for the pIC50 in assay [1] and in assay [2] were 3.25 and 4.51, respectively.

On to `CC(C)C[C@H](NC(=O)[C@H](Cc1ccc(OP(=O)(O)O)cc1)NC(=O)c1ccc(C#N)cc1)C(=O)NCc1ccncc1`, for which the figures for the negative logarithm of the IC50 (pIC50) in assay [1] and in assay [2] were 3.40 and 3.91, respectively.

Consider `CC(C)C[C@H](NC(=O)[C@H](Cc1ccc(OP(=O)(O)O)cc1)NC(=O)c1ccc(C#N)cc1)C(=O)NC1CCCCC1`, for which the figures for the pIC50 in assay [1] and in assay [2] were 3.22 and 4.24, respectively.

On to `COC(=O)[C@H](CC(C)C)NC(=O)[C@H](Cc1ccc(OP(=O)(O)O)cc1)NC(=O)c1ccc(C#N)cc1`, for which the result in assay [3] and in assay [2] was inactive.

`CC(C)C[C@H](NC(=O)[C@H](Cc1ccc(OP(=O)(O)O)cc1)NC(=O)c1ccc(C#N)cc1)C(=O)NCc1cccnc1`: the outcome in assay [3] and in assay [2] was inactive.

On to `CC(C)C[C@H](NC(=O)[C@H](Cc1ccc(OP(=O)(O)O)cc1)NC(=O)c1ccc(C#N)cc1)C(=O)NCc1ccccc1`, for which the values for the pIC50 in assay [1] and in assay [2] were 3.12 and 3.10, respectively.

Turning to `Cc1cccc(NC(=O)[C@H](CC(C)C)NC(=O)[C@H](Cc2ccc(OP(=O)(O)O)cc2)NC(=O)c2ccc(C#N)cc2)c1`, the outcome in assay [3] and in assay [2] was inactive.

As for `CC(C)C[C@H](NC(=O)[C@H](Cc1ccc(OP(=O)(O)O)cc1)NC(=O)c1ccc(C#N)cc1)C(=O)Nc1ccccc1`, the results for the negative-log IC50 (pIC50) in assay [1] and in assay [2] were 3.42 and 3.51, respectively.

For the molecule `CC(C)CNC(=O)[C@H](CC(C)C)NC(=O)[C@H](Cc1ccc(OP(=O)(O)O)cc1)NC(=O)c1ccc(C#N)cc1` (stereo in doubt; form 2), the pIC50 was 3.60 in assay [1] and 4.13 in assay [2].

`CC(C)C[C@H](NC(=O)[C@H](Cc1ccc(OP(=O)(O)O)cc1)NC(=O)c1ccc(C#N)cc1)C(=O)NCCCO`: the negative logarithm of the IC50 (pIC50) is 3.68 in assay [1] and 3.21 in assay [2].

Consider `CC(C)CNC(=O)[C@H](CC(C)C)NC(=O)[C@H](Cc1ccc(OP(=O)(O)O)cc1)NC(=O)c1ccc(C#N)cc1` (stereo in doubt; form 1), for which the pIC50 was 3.12 in assay [1] and 4.24 in assay [2].
